Measured values: ChEMBL document CHEMBL1201862, “PubChem BioAssay data set” (2004)
One block for each molecule: values may come before it. Active and inactive are the calls of the source.

What was measured:
[1] = molecular target: T1, Corticotropin-releasing factor receptor 2/Corticotropin-releasing factor-binding protein (Homo sapiens, UniProt P24387+Q13324); assay: Dose Response confirmation of uHTS hits for small molecule antagonists of the CRF-binding protein and CRF-R2 receptor complex.; format: functional; settings: read-out: IC50_Mean
T1 sequence (Q13324 whole entry): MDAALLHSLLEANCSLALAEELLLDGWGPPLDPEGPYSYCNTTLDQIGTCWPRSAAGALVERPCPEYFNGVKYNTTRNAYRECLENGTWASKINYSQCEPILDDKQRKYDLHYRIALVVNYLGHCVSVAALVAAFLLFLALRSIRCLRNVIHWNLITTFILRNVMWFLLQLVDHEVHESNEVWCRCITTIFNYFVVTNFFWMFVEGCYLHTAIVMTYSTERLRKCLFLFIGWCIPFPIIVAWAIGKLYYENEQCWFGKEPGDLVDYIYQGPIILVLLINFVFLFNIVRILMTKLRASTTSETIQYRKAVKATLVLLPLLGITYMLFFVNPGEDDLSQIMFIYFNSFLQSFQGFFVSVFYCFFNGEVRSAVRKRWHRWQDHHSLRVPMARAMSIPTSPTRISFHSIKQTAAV
T1 sequence (P24387 whole entry): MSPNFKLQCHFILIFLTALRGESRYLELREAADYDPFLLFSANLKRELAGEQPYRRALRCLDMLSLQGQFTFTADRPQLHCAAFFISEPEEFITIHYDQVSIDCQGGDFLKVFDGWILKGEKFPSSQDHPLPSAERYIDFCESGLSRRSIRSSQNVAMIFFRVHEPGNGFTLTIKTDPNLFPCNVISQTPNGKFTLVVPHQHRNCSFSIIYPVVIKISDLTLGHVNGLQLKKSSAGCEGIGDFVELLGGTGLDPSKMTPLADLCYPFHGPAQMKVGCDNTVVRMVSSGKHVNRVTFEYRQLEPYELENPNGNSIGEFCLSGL

[2] = molecular target: T1, Corticotropin-releasing factor receptor 2/Corticotropin-releasing factor-binding protein; assay: activators of CRF receptor 2 with binding protein – uHTS hits, confirmation (AID 602473); format: functional; settings: read-out: EC50_Mean
[3] = molecular target: T2, Cytochrome P450 1A2 (Homo sapiens, UniProt P05177);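 note: PubChem cytochrome P450 panel assay, CYP1A2 panel member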
T2 sequence (P05177 whole entry): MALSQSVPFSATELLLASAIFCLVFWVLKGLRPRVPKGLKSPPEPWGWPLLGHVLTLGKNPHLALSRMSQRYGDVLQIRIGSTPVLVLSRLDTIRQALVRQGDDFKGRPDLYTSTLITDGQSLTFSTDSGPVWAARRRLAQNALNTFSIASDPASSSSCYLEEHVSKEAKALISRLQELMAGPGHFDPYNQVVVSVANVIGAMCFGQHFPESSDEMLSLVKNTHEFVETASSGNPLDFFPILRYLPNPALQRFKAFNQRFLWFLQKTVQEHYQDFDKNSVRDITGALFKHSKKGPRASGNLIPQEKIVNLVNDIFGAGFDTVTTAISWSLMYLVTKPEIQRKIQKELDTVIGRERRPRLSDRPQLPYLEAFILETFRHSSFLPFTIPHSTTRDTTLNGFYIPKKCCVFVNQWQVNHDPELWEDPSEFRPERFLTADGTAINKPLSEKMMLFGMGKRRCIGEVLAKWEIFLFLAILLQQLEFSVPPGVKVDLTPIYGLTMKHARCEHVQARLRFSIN

[4] = molecular target: Cytochrome P450 2C19 (Homo sapiens, UniProt P33261); assay: Cytochrome panel assay with activity outcomes. Panel member name: p450-cyp2c19 Compounds with AC50 equal or less than 10 uM are considered active; format: functional; settings: read-out: AC50
[5] = molecular target: Cytochrome P450 2D6 (Homo sapiens, UniProt P10635);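 note: CYP2D6 member of a cytochrome P450 panel assay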
[6] = molecular target: Cytochrome P450 3A4 (Homo sapiens, UniProt P08684);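 note: CYP3A4 tested as one member of a cytochrome P450 panel screen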
[7] = inhibitors of intracellular T. cruzi replication, confirmation, NIH3T3 host cells, beta-gal luminescence (AID 2044); format: functional, cell-based;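 note: intracellular parasites grown in NIH/3T3 mouse fibroblasts as host cells; luminescent beta-galactosidase reporter signal from transgenic T. cruzi replicating inside host cells; inhibitors lower the luminescence signal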
[8] = cytotoxicity toward NIH3T3 fibroblasts, dose response, counter-screen, cell-based, ATP luminescence, mouse fibroblasts (AID 2010); format: functional;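 note: cells exposed to compound for about 90 hours before reading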
[9] = molecular target: T3, Heat shock factor protein 1 (Mus musculus, UniProt P38532); assay: HSF1 potentiators in luciferase reporter cells, confirmation, cell-based, NIH3T3, luminescence, dose retest (AID 435004); format: functional;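 note: stress induced by proteasome inhibitor MG132 added 30 min after compound; luciferase reporter driven by HSF1 response element in NIH3T3 cells; actives raise luminescence as potentiators of the MG132 stress response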
T3 sequence (P38532 whole entry): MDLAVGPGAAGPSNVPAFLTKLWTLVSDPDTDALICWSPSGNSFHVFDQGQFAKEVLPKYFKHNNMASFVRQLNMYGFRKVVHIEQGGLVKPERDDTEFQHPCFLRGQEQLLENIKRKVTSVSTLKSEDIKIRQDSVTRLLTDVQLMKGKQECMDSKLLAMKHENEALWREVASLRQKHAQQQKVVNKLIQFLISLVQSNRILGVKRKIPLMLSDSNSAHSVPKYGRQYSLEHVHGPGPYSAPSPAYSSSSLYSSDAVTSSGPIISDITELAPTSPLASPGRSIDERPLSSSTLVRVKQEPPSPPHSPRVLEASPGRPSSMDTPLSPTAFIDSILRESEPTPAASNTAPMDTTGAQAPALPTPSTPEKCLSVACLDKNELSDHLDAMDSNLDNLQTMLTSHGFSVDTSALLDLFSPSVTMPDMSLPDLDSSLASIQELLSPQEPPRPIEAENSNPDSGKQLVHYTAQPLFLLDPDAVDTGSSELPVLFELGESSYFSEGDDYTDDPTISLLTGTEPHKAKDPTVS

[10] = molecular target: T4, Rac GTPase-activating protein 1 (Homo sapiens, UniProt Q9H0H5); assay: MgcRacGAP GTPase-activating activity inhibitors, confirmation, biochemical, ADP Hunter fluorescence, primary and confirmatory (AID 624330); format: functional
T4 sequence (Q9H0H5 whole entry): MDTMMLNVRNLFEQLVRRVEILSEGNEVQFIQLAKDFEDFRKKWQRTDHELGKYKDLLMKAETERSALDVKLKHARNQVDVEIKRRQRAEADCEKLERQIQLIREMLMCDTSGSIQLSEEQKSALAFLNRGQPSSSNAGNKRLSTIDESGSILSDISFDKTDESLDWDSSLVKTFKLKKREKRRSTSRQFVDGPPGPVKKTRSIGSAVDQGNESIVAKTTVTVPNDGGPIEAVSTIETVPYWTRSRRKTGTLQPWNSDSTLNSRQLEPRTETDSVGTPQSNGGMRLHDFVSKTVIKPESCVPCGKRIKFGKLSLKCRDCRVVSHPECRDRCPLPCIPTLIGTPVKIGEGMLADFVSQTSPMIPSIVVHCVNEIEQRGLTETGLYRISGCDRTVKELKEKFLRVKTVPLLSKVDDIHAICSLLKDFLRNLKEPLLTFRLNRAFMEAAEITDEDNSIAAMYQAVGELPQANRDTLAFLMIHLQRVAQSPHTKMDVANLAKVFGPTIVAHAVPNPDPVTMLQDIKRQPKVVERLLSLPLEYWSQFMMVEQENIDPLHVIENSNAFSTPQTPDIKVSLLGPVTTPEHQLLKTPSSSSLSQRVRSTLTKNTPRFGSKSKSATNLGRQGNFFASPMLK

[11] = molecular target: Cytochrome P450 2C9 (Homo sapiens, UniProt P11712)
[12] = HEp-2 cell cytotoxicity, dose response, cytotoxicity control for RSV inhibitor project, HTS (AID 2410); format: functional; settings: human respiratory syncytial virus

Chain of Cytochrome P450 2D6 (P10635 whole entry): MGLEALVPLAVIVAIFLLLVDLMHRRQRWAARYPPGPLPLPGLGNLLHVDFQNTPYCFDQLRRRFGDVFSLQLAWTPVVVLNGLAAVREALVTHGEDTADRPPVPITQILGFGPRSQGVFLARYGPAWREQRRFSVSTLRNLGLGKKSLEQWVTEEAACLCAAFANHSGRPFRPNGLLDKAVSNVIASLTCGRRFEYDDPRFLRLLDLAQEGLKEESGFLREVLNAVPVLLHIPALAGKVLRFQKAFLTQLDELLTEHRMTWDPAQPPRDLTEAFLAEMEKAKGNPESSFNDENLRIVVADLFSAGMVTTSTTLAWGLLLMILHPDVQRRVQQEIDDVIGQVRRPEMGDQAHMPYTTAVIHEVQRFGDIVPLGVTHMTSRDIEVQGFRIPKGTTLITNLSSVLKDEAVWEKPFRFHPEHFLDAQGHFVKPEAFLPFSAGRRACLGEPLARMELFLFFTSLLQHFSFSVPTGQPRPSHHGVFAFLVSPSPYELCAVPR
Chain of Cytochrome P450 2C19 (P33261 whole entry): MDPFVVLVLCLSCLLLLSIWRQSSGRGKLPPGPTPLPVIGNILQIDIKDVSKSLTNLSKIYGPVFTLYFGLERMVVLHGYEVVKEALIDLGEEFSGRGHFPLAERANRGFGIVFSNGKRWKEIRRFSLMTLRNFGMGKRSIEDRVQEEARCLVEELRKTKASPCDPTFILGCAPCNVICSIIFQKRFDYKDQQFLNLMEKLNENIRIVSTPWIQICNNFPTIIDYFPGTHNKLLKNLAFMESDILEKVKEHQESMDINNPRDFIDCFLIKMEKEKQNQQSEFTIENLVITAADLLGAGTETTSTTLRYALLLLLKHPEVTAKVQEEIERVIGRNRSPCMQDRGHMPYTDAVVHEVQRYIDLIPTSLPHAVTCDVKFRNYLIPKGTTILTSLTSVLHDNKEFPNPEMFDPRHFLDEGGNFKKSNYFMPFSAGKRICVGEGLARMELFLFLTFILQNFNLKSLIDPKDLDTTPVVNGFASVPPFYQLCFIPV
Chain of Cytochrome P450 3A4 (P08684 whole entry): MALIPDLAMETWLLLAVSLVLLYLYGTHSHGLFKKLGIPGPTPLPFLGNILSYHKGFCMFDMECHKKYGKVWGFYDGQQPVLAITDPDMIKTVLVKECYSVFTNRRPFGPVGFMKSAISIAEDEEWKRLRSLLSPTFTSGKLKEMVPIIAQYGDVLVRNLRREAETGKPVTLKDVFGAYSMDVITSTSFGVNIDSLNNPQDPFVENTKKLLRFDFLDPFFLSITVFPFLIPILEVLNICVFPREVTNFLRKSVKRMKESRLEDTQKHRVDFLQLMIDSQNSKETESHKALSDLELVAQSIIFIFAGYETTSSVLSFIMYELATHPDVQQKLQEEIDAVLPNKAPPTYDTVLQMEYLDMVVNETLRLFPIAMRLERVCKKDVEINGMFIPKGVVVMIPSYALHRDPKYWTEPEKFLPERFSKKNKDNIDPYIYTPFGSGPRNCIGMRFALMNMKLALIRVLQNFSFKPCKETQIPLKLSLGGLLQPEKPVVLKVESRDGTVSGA
Chain of Cytochrome P450 2C9 (P11712 whole entry): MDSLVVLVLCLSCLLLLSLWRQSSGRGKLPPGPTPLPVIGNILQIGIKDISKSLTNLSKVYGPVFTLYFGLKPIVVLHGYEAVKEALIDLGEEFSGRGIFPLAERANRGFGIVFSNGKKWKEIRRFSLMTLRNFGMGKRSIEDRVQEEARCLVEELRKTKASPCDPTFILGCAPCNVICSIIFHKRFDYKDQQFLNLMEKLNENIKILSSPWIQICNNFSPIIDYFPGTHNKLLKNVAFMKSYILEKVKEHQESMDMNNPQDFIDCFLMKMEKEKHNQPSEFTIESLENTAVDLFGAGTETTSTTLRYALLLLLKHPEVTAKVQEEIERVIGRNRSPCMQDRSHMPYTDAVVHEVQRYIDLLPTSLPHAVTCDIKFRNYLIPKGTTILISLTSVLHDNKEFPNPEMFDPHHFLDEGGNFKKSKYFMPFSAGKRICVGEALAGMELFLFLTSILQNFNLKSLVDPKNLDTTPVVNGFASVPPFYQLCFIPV

- IC50 [1]: > 47.1 µM (inactive)
- EC50 [2]: > 53 µM (inactive)
SMILES: O=C(Nc1nc(-c2ccccc2)cs1)c1ccc2c(c1)S(=O)(=O)c1ccccc1C2=O

- AC50 [3]: 20 µM (inconclusive)
SMILES: COc1ccc(NC(=O)N2CCC3(CC2)CCN(C(=O)c2ccco2)CC3)cc1

- AC50 [4]: 39.8 µM (inconclusive)
- AC50 [5]: 20 µM (inconclusive)
- AC50 [3]: 15.8 µM (inconclusive)
SMILES: COC(=O)C1CC1C(NC(=O)[C@@H]1CCCN1)c1ccccc1 (some centres undefined)

- AC50 [5]: 14.1 µM (inconclusive)
- AC50 [3]: 31.6 µM (inconclusive)
- AC50 [6]: 12.6 µM (inconclusive)
SMILES: Cc1ccc(NC(=O)Cn2cnc3c(cnn3C(C)(C)C)c2=O)cc1

- IC50 [1]: > 47.1 µM (inactive)
- EC50 [2]: > 53 µM (inactive)
SMILES: Cc1ccc(CNC(=O)CCC(=O)c2cccs2)cc1

- AC50 [3]: 15.8 µM (inconclusive)
SMILES: CCOC(=O)N1CCN(C(=O)CCn2nc(-c3ccccc3)ccc2=O)CC1

- IC50 [1]: > 47.1 µM (inactive)
- EC50 [2]: > 53 µM (inactive)
SMILES: COc1ccc(Nc2nc(Cl)nc(NCc3ccco3)n2)c(OC)c1

SMILES: O=[N+]([O-])c1ccc(S(=O)(=O)N(Cc2cccnc2)Cc2cc3ccccc3nc2O)cc1
- EC50 [7]: 1.84 µM (active)
- EC50 [8]: > 60 µM (not active)
- EC50 [9]: > 260 µM (inactive)

- AC50 [3]: 15.8 µM (inconclusive)
SMILES: CCCCCNCc1cccc(Br)c1

- EC50 [9]: > 260 µM (inactive)
SMILES: CCS(=O)(=O)N1CCc2nc(-c3ccccc3)sc2C1

- AC50 [3]: 2.51 µM (inconclusive)
SMILES: C=CCNC1=C(C(=O)CCC(=O)OC)C(=O)CC(C)(C)C1

- IC50 [1]: > 47.1 µM (inactive)
- EC50 [2]: > 53 µM (inactive)
SMILES: O=C1c2ccccc2-c2ncnc3c(N4CCOCC4)cc(N4CCOCC4)c1c23

- AC50 [4]: 5.01 µM (inconclusive)
- AC50 [3]: 31.6 µM (inconclusive)
SMILES: Cc1ncc2c(c1O)COP(=O)(O)OC2

- AC50 [3]: 20 µM (inconclusive)
- AC50 [6]: 25.1 µM (inconclusive)
SMILES: COC(=O)N1CCC2(CCCN(C(=O)Nc3ccc(OC)cc3)C2)CC1

- AC50 [4]: 22.4 µM (inconclusive)
- AC50 [3]: 28.2 µM (inconclusive)
SMILES: NC1=NC2(CCCCCC2)n2c(nc3ccccc32)N1

- IC50 [1]: > 47.1 µM (inactive)
- EC50 [2]: > 53 µM (inactive)
SMILES: Cc1ccccc1C(=O)NCC(=O)OC1CCCCC1=O (centres undefined)

- EC50 [9]: > 260 µM (inactive)
SMILES: O=C(CCN1C(=O)c2ccccc2C1=O)Nc1sc2c(c1C(=O)NCC1CCCO1)CCC2 (centres undefined)

- IC50 [1]: > 47.1 µM (inactive)
- EC50 [2]: > 53 µM (inactive)
SMILES: CCC(C)c1ccc(S(=O)(=O)N2CCN(CC(O)COCC3CCCO3)CC2)cc1 (centres undefined)

- IC50 [10]: 79 µM (active)
SMILES: CN1CCN(Cc2coc3c(Cl)cc(Cl)cc3c2=O)CC1

- EC50 [9]: > 260 µM (inactive)
SMILES: Nc1cc[n+](CC(=O)Nc2ccccc2)cc1

SMILES: C[C@@]12C=CC(=O)C=C1CC[C@@H]1C2=CC[C@]2(C)[C@@H]1CC[C@H]2C(=O)CN1CCN(c2cc(N3CCCC3)nc(N3CCCC3)n2)CC1
- AC50 [5]: 25.1 µM (inconclusive)
- AC50 [3]: 12.6 µM (inconclusive)
- AC50 [11]: 12.6 µM (inconclusive)

- IC50 [1]: > 47.1 µM (inactive)
- EC50 [2]: > 53 µM (inactive)
SMILES: COc1ccc(N2CCN(C(=O)CCS(=O)(=O)c3ccc4c(c3)NC(=O)CO4)CC2)cc1

- IC50 [10]: 115 µM (active)
SMILES: CCN1CCCC1CNCC(=O)Nc1ccc(OC(F)(F)F)cc1 (centres undefined)

- IC50 [10]: 67.5 µM (active)
SMILES: Oc1ccc(NC(S)=Nc2ccc(F)cc2)cc1

- IC50 [1]: > 47.1 µM (inactive)
- EC50 [2]: > 53 µM (inactive)
SMILES: CCN(c1ccccc1)S(=O)(=O)c1cc(NC(=O)CSc2nnc(O)nc2O)ccc1Cl

- IC50 [1]: > 47.1 µM (inactive)
- EC50 [2]: > 53 µM (inactive)
SMILES: CCCc1cc(=O)nc(SCC(=O)Nc2ccc(OC(F)F)cc2)[nH]1

- EC50 [9]: > 260 µM (inactive)
SMILES: CC12CN(C(S)=Nc3ccccc3)CC(C)(CN(C(S)=Nc3ccccc3)C1)C2=O

SMILES: Cc1nn(Cc2ccccc2Cl)c(C)c1NC(=O)CCCn1nc([N+](=O)[O-])c(Cl)c1C
- EC50 [7]: 0.514 µM (active)
- EC50 [8]: > 60 µM (not active)
- EC50 [9]: > 260 µM (inactive)

- EC50 [9]: > 260 µM (inactive)
SMILES: Cc1ccccc1-c1nnc(CS(=O)(=O)c2ccccc2)o1

- IC50 [10]: 169 µM (active)
SMILES: C=CCN(CC=C)C(=O)C1CCN(Cc2ccc(OCc3ccccc3)cc2)CC1

- IC50 [1]: > 47.1 µM (inactive)
- EC50 [2]: > 53 µM (inactive)
- IC50 [10]: 203 µM (active)
SMILES: COc1cccc(OC)c1C(=O)N1CCN(Cc2cccnc2)CC1

- EC50 [9]: 203 µM (active)
SMILES: COc1cc(OC)c(N(C)S(=O)(=O)c2cccc(C(=O)Nc3nnc(C4CC4)s3)c2)cc1Cl

- IC50 [10]: 53.4 µM (active)
SMILES: COc1ccc(Nc2ccc3ccccc3c2)cc1

- EC50 [9]: > 260 µM (inactive)
SMILES: CC(C)c1nnc(SCc2ccc(CSc3nnc(C(C)C)n3N)cc2)n1N

- EC50 [9]: 2.74 µM (active)
- AC50 [4]: 3.16 µM (inconclusive)
SMILES: CCOC(=O)CSC1=NC(=O)/C(=C\c2ccc(Cl)cc2)S1
- CC50 [12]: 18.9 µM (active)

- EC50 [9]: > 260 µM (inactive)
SMILES: COc1ccc(CN2CCNC(=O)C2CC(=O)NCC2CCOCC2)cc1C (centres undefined)

- IC50 [1]: > 47.1 µM (inactive)
- EC50 [2]: > 53 µM (inactive)
SMILES: Cc1cc(OCCCC(=O)Nc2cc(S(=O)(=O)N3CCOCC3)ccc2N2CCOCC2)ccc1Cl

SMILES: CCOC(=O)C1(CCOc2ccccc2)CCN(Cc2cc(OC)c3c(c2)OCO3)CC1
- EC50 [7]: 2.65 µM (active)
- EC50 [8]: > 60 µM (not active)
- EC50 [9]: > 260 µM (inactive)

- IC50 [10]: 45 µM (active)
SMILES: O=[N+]([O-])c1ccc(N2CCN(c3ccc(O)cc3)CC2)c(Cl)c1

SMILES: Cn1cnc([N+](=O)[O-])c1Sc1nc(N)nc2c1ncn2[C@H]1C[C@H](O)[C@@H](CO)O1
- AC50 [3]: 6.31 µM (inconclusive)
